Test results: patent US8629173B2, “Solid forms comprising (+)-2-[1-(3-ethoxy-4-methoxyphenyl)-2-methylsulfonylethyl]-4-acetylaminoisoindoline-1,3-dione, compositions thereof, and uses thereof” (Celgene Corporation, priority 2002, dated 2014)

Columns and labels:
PDE4 (from U937 cells) = test: PDE4 (U937 cell-derived) enzyme assay; format: biochemical, human; conditions: 1 μM cAMP
bovine PDE1 = test: PDE1 enzyme assay; format: biochemical
human PDE2 = human PDE2 (Homo sapiens, UniProt O00408); test: PDE2 enzyme assay; format: biochemical
[1] = target: PDE3 from human platelets (Homo sapiens, UniProt Q14432); test: PDE3 enzyme assay; format: biochemical
[2] = target: PDE5 from human platelets (Homo sapiens, UniProt O76074); test: PDE5 enzyme assay; format: biochemical
[3] = target: T1, PDE6 from bovine retinal rod outer segments (Bos taurus, UniProt P11541+P23439); test: PDE6 enzyme assay; format: biochemical
T1 construct: PDE6 from bovine retinal rod outer segments; from tissue; host or cells: bovine retinal rod outer segments
T1 sequence (P11541 2-856 limits assumed): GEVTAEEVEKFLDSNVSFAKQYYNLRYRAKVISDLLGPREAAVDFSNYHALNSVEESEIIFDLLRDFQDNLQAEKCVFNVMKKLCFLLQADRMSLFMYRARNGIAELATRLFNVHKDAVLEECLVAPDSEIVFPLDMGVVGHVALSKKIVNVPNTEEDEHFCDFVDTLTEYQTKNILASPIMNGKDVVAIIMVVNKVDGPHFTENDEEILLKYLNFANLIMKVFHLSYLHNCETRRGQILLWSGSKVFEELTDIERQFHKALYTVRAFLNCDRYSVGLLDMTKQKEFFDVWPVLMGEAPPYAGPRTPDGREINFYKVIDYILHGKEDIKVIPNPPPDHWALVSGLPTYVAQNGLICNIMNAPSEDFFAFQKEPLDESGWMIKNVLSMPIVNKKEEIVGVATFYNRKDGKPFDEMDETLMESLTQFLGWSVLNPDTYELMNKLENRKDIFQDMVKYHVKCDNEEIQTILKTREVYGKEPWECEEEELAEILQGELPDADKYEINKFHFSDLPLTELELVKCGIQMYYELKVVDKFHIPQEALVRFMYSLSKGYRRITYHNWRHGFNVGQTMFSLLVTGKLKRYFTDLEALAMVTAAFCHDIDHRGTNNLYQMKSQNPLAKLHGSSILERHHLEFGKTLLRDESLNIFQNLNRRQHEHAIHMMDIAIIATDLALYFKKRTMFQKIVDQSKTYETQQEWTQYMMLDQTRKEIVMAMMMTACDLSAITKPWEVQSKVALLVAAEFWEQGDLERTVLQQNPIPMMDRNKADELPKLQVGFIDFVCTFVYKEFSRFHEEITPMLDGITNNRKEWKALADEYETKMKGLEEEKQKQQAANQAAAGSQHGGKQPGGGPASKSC
T1 sequence (P23439 2-850 limits assumed): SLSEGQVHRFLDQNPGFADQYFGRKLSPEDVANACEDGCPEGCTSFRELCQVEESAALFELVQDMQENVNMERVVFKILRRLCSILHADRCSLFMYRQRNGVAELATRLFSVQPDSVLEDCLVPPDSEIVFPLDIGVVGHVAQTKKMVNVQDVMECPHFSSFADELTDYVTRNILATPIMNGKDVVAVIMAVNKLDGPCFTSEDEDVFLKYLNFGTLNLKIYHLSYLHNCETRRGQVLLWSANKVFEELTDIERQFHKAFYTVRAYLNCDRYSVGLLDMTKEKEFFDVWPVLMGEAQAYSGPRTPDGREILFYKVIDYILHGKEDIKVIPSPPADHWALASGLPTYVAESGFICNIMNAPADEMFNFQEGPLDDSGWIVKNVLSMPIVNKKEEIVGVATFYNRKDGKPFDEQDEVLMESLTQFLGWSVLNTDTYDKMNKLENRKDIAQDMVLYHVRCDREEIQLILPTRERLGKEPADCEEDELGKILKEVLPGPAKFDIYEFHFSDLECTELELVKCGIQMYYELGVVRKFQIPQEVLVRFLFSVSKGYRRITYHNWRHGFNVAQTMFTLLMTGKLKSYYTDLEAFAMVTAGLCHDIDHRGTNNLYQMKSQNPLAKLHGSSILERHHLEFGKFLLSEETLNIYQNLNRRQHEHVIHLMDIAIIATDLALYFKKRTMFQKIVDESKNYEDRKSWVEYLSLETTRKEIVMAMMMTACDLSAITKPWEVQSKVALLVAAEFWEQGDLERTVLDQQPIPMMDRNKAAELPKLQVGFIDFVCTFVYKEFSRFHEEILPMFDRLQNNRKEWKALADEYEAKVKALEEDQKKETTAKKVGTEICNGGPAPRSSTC

Sequence of PDE3 from human platelets (Q14432 whole entry): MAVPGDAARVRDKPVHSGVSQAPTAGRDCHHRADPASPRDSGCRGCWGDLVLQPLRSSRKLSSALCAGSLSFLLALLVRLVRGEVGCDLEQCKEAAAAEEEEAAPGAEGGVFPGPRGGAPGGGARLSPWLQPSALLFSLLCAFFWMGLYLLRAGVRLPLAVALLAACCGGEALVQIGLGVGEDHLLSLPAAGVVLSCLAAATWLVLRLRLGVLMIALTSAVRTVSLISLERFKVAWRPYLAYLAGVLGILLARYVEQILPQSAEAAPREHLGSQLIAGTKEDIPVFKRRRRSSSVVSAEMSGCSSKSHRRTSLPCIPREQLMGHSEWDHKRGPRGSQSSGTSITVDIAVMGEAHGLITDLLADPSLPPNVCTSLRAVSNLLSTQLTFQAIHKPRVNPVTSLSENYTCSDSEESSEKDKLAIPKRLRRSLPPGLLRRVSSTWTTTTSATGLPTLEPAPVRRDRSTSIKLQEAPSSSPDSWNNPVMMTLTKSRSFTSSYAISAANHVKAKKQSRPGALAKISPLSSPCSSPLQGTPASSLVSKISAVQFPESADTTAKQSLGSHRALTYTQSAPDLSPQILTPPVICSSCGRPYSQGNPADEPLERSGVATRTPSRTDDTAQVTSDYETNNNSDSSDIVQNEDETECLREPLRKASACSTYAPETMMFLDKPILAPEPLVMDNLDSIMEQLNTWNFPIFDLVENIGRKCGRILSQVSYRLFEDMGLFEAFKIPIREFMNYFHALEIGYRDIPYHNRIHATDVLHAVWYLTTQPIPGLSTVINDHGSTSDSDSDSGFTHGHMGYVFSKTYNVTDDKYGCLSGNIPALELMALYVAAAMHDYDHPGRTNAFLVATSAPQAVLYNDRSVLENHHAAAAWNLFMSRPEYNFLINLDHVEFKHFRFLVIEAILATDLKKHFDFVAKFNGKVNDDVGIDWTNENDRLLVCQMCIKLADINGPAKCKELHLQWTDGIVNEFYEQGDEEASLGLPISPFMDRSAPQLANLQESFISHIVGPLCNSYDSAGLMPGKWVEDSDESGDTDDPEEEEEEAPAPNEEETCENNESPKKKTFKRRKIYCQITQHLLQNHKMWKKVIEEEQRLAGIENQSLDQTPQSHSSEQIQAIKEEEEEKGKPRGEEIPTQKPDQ
Sequence of human PDE2 (O00408 whole entry): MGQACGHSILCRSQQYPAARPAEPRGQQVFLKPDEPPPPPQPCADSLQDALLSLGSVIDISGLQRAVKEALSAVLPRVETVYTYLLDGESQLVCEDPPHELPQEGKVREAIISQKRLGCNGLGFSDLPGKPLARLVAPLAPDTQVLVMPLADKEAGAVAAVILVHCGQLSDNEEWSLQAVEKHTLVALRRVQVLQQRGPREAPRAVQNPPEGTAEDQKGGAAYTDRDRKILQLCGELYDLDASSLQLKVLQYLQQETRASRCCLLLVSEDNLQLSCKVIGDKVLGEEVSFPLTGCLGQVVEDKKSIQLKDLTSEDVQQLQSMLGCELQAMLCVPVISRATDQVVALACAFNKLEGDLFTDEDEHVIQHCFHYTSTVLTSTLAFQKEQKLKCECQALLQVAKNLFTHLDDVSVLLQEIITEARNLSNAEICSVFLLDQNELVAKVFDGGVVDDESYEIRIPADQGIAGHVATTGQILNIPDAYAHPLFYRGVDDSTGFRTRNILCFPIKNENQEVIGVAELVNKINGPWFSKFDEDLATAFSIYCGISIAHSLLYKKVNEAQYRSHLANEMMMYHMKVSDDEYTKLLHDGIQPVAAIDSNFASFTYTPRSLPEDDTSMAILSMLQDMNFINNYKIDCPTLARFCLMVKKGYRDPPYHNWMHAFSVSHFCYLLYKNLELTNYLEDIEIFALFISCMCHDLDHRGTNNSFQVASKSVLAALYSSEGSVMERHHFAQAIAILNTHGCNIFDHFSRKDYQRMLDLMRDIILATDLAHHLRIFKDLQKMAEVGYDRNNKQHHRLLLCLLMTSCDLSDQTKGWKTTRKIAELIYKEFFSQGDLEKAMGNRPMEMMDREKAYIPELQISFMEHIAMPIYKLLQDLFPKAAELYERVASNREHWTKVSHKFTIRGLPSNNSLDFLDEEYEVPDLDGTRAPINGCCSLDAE

IC50 (PDE4 (from U937 cells)): 611 nM | PDE1 (% inhib at 10 μM) (bovine PDE1; 10 μM): 27% | PDE Specificity Ratio PDE4/PDE1 (bovine PDE1; from Table 1 data): >50 fold | PDE2 (% inhib at 10 μM) (human PDE2; 10 μM): 10% | PDE Specificity Ratio PDE4/PDE2 (human PDE2; from Table 1 data): >260 fold | PDE3 (% inhib at 10 μM) ([1]; 10 μM): 31% | PDE Specificity Ratio PDE4/PDE3 ([1]; from Table 1 data): >45 fold | PDE5 (% inhib at 10 μM) ([2]; 10 μM): −9% | PDE Specificity Ratio PDE4/PDE5 ([2]; from Table 1 data): >39000 fold | PDE6 (% inhib at 10 μM) ([3]; 10 μM): 10% | PDE Specificity Ratio PDE4/PDE6 ([3]; from Table 1 data): >250 fold
SMILES: CCOc1cc([C@H](CS(C)(=O)=O)N2C(=O)c3cccc(NC(C)=O)c3C2=O)ccc1OC [Compound B]
